Entries after “also recorded” stand apart in the source; their conditions may differ.
These compounds were tested on OVCAR-8 cells (assay: Drug-siRNA combination screen: 346-compound anticancer library at 100 nM, CCK-8 viability). Conditions: OVCAR-8; drug 100 nM plus siRNA knockdown of each of 18 genes; distance VAB−VA×VB in SD; single gene contributes at most +5 / −5; negative = synergy, positive = antagonism.

Row | Structure (SMILES) | Score (sum of observed SD values for 18 genes)
1 | C[C@H](NC(=O)Cc1cc(F)cc(F)c1)C(=O)N[C@@H]1C(=O)N(C)c2ccccc2-c2ccccc21 [0YO-1027] | −38.72 SD
2 | COc1cc2c(cc1O)CC[C@@H]1[C@@H]2CC[C@]2(C)[C@@H](O)CC[C@@H]12 [2-Methoxyestradiol] | −31.84 SD
3 | Cn1cnc(N)c2ncnc1-2 [3-Methyladenine] | −24.92 SD
4 | CO[C@H]1/C=C\C=C(/C)C(=O)NC2=CC(=O)C(NCCN(C)C)=C(C[C@@H](C)C[C@H](OC)[C@H](O)[C@@H](C)/C=C(\C)[C@@H]1OC(N)=O)C2=O.Cl [17 - DMAG HCI] | 19.7 SD
5 | C=CCNC1=C2C[C@@H](C)C[C@H](OC)[C@H](O)[C@@H](C)/C=C(\C)[C@H](OC(N)=O)[C@@H](OC)/C=C\C=C(/C)C(=O)NC(=CC1=O)C2=O [17-AAG] | −6.69 SD
6 | N#Cc1c(O)c2c(-c3ccc(-c4ccccc4O)cc3)csc2[nH]c1=O [A-769662] | −22.81 SD
7 | CN(C)CC[C@H](CSc1ccccc1)Nc1ccc(S(=O)(=O)NC(=O)c2ccc(N3CCN(Cc4ccccc4-c4ccc(Cl)cc4)CC3)cc2)cc1[N+](=O)[O-] [ABT-737] | −5.9 SD
8 | COc1ccc(S(=O)(=O)Nc2cccnc2Nc2ccc(O)cc2)cc1 [ABT-751] | −13.93 SD
9 | CN(C)Cc1ccc(-c2nc3cccc4c3n2CCNC4=O)cc1 [AG14361] | 2.72 SD
10 | Cc1csc(-c2nnc(Nc3ccc(Oc4ncccc4-c4ccnc(N)n4)cc3)c3ccccc23)c1 [AMG 900] | 11.64 SD
11 | O=C(/C=C/c1cccnc1)NCCCCC1CCN(C(=O)c2ccccc2)CC1 [APO866] | 7.8 SD
12 | CC(C)[C@H](C(=O)Nc1ccc(C(=O)NO)cc1)c1ccccc1 [AR-42] | −36.88 SD
13 | CN[C@@H](C)C(=O)N[C@H]1CN(C(=O)CC(C)C)CC[C@H]2CC[C@@H](C(=O)NC(c3ccccc3)c3ccccc3)N2C1=O [AT406] | −38.03 SD
14 | O=C(NC1CCNCC1)c1n[nH]cc1NC(=O)c1c(Cl)cccc1Cl [AT7519] | −24.02 SD
15 | O=C(Nc1c[nH]nc1-c1nc2ccc(CN3CCOCC3)cc2[nH]1)NC1CC1 [AT9283] | 12.54 SD
16 | CCNC(=O)c1noc(-c2cc(C(C)C)c(O)cc2O)c1-c1ccc(CN2CCOCC2)cc1 [AUY922] | 8.46 SD
17 | Cc1ccc(NC(=O)c2cccc(C(C)(C)C#N)c2)cc1Nc1ccc2ncn(C)c(=O)c2c1 [AZ628] | −43.85 SD
18 | NC(=O)Nc1cc(-c2cccc(F)c2)sc1C(=O)N[C@H]1CCCNC1 [AZD7762] | −43.68 SD
19 | COc1ccc(-c2ccc3c(N4CCOC[C@@H]4C)nc(N4CCOC[C@@H]4C)nc3n2)cc1CO [AZD8055] | -51.01 SD
20 | CN(C)C/C=C/C(=O)Nc1cc2c(Nc3ccc(F)c(Cl)c3)ncnc2cc1O[C@H]1CCOC1 [Afatinib] | -54.76 SD
21 | COc1cc(Nc2ncc3c(n2)-c2ccc(Cl)cc2C(c2c(F)cccc2OC)=NC3)ccc1C(=O)O [Alisertib] | −2.8 SD

Row | Structure (SMILES) | Score (sum of observed SD values for 18 genes)
22 | CCC1(c2ccc(N)cc2)CCC(=O)NC1=O (centres unmarked) [Aminoglutethimide] | −9.32 SD
23 | S=C(NCc1ccc2c(c1)OCO2)N1CCN(c2ncnc3c2oc2ccccc23)CC1 [Amuvatinib] | 12.37 SD
24 | Cl.O=C1CN2Cc3c(ccc(Cl)c3Cl)N=C2N1 [Anagrelide HCI] | −8.01 SD
25 | CC(=O)Nc1ccc(OC[C@](C)(O)C(=O)Nc2ccc([N+](=O)[O-])c(C(F)(F)F)c2)cc1 [Andarine] | −7.28 SD
26 | C[C@@H](O[C@H]1OCCN(Cc2n[nH]c(=O)[nH]2)[C@H]1c1ccc(F)cc1)c1cc(C(F)(F)F)cc(C(F)(F)F)c1 [Aprepitant] | −23.29 SD
27 | Cn1cnc([N+](=O)[O-])c1Sc1ncnc2nc[nH]c12 [Azathioprine] | −28.48 SD
28 | Cc1ccc(S(=O)(=O)/C=C/C#N)cc1 [BAY 11-7082] | −5.7 SD
29 | Cn1c(=O)n(-c2ccc(C(C)(C)C#N)cc2)c2c3cc(-c4cnc5ccccc5c4)ccc3ncc21 [BEZ235] | −35.65 SD
30 | CC[C@@H]1C(=O)N(C)c2cnc(Nc3ccc(C(=O)NC4CCN(C)CC4)cc3OC)nc2N1C1CCCC1 [BI2536] | 12.6 SD
31 | C/C(=C\C(=O)Nc1ccccc1C(=O)O)c1ccc2ccccc2c1 [BIBR 1532] | −16.4 SD
32 | COc1c(C)cnc(Cn2cnc3c(Cl)nc(N)nc32)c1C [BIIB021] | −33.01 SD
33 | CCOc1ccn(-c2ccc(F)cc2)c(=O)c1C(=O)Nc1ccc(Oc2ccnc(N)c2Cl)c(F)c1 [BMS 777607] | −14.73 SD
34 | Nc1nccc(Oc2ccc(NC(=O)c3c[nH]cc(-c4ccc(F)cc4)c3=O)cc2F)c1Cl [BMS 794833] | −23.46 SD
35 | Cc1c(NC(=O)OC[C@@H]2COCCN2)cn2ncnc(Nc3ccc4c(cnn4Cc4cccc(F)c4)c3)c12 [BMS-599626] | −40.89 SD
36 | C[C@H]1COC2(CCN(c3nc(=O)c4cc(C(F)(F)F)cc([N+](=O)[O-])c4s3)CC2)O1 [BTZ043] | −13.06 SD
37 | O=C(NCCCNc1nc(Nc2cccc(NC(=O)N3CCCC3)c2)ncc1I)c1cccs1 [BX-795] | −14.94 SD
38 | CCN(CCCOc1ccc2c(Nc3cc(CC(=O)Nc4cccc(F)c4)n[nH]3)ncnc2c1)CCOP(=O)(O)O [Barasertib] | 20.03 SD
39 | C=C(c1ccc(C(=O)O)cc1)c1cc2c(cc1C)C(C)(C)CCC2(C)C [Bexarotene] | −1.35 SD
40 | CC(O)(CS(=O)(=O)c1ccc(F)cc1)C(=O)Nc1ccc(C#N)c(C(F)(F)F)c1 (centres unmarked) [Bicalutamide] | −23.24 SD
41 | COc1cc(Nc2c(C#N)cnc3cc(OCCCN4CCN(C)CC4)c(OC)cc23)c(Cl)cc1Cl [Bosutinib] | −23.5 SD
42 | Cc1cc2c(F)c(Oc3ncnn4cc(OC[C@@H](C)O)c(C)c34)ccc2[nH]1 [Brivanib] | −14.38 SD

Row | Structure (SMILES) | Score (sum of observed SD values for 18 genes)
43 | Nc1cc(C(F)(F)F)c(-c2cc(N3CCOCC3)nc(N3CCOCC3)n2)cn1 [Buparlisib] | 8.79 SD
44 | CC[C@H](Nc1ncnc2[nH]cnc12)c1nc2cccc(F)c2c(=O)n1-c1ccccc1 [CAL-101] | −27.89 SD
45 | CN1CCN(c2cccc(Nc3nc4c(-c5ccc(S(C)(=O)=O)cc5)cccn4n3)c2)CC1 [CEP33779] | −27.66 SD
46 | CS(=O)(=O)N1CCc2c(-c3cnc(N)nc3)nc(N3CCOCC3)nc21 [CH5132799] | 15.96 SD
47 | Cc1c[nH]c(-c2cnc(NCCNc3ccc(C#N)cn3)nc2-c2ccc(Cl)cc2Cl)n1 [CHIR-99021] | −2.4 SD
48 | O=C(NOCC1CC1)c1ccc(F)c(F)c1Nc1ccc(I)cc1Cl [CI-1040] | −45.66 SD
49 | COc1cc2ncnc(-n3nc(-c4ccccn4)nc3N)c2cc1OC [CP-466722] | 2.79 SD
50 | C#Cc1cccc(Nc2ncnc3cc(OC)c(OCCCCCCC(=O)NO)cc23)c1 [CUDC-101] | −46.83 SD
51 | Cc1nc(N)sc1-c1ccnc(Nc2ccc(N3CCOCC3)cc2)n1 [CYC116] | −28.81 SD
52 | Cc1ccc([C@@H]2O[C@H](CO)[C@@H](O)[C@H](O)[C@H]2O)cc1Cc1ccc(-c2ccc(F)cc2)s1 [Canagliflozin] | −25.46 SD
53 | N.N.O=C([O-])C1(C(=O)[O-])CCC1.[Pt+2] [Carboplatin] | −24.62 SD
54 | CCCCCCNC(=O)n1cc(F)c(=O)[nH]c1=O [Carmofur] | −18.23 SD
55 | COc1cc2c(Oc3ccc4[nH]c(C)cc4c3F)ncnc2cc1OCCCN1CCCC1 [Cediranib] | −11.55 SD
56 | Cc1cc(O)c2c(c1)C(=O)c1cccc(O)c1C2=O [Chrysophanol] | −5.16 SD
57 | N.N.[Cl][Pt][Cl] [Cisplatin] | −21 SD
58 | COC1=C(OC)C(=O)C(C/C=C(\C)CC/C=C(\C)CC/C=C(\C)CC/C=C(\C)CC/C=C(\C)CC/C=C(\C)CC/C=C(\C)CC/C=C(\C)CC/C=C(\C)CCC=C(C)C)=C(C)C1=O [Coenzyme Q10] | −4.69 SD
59 | CC1(COc2ccc3c(c2)ncn3-c2ccc3cccc(N4CCC(N)CC4)c3n2)COC1 [Crenolanib] | −18.09 SD
60 | CC1=C2C[C@H]3[C@@H](CC=C4C[C@@H](O)CC[C@@]43C)[C@@H]2CC[C@]12O[C@@H]1C[C@H](C)CN[C@H]1[C@H]2C [Cyclopamine] | 3.03 SD
61 | NC(=O)CC[C@@H](N)C(=O)O [D-glutamine] | 0.27 SD
62 | C[C@H](NC(=O)Cc1cc(F)cc(F)c1)C(=O)N[C@H](C(=O)OC(C)(C)C)c1ccccc1 [DAPT-(GSI-IX)] | 12.69 SD

Same assay, conditions: OVCAR-8; drug 100 nM; panel of 18 siRNA knockdowns

Row | Structure (SMILES) | synergy / antagonism of drug with gene knockdowns, in words
63 | CC(C)[C@H](C(=O)Nc1ccc(C(=O)NO)cc1)c1ccccc1 [AR-42] | mostly synergistic
64 | Cc1ccc(NC(=O)c2cccc(C(C)(C)C#N)c2)cc1Nc1ccc2ncn(C)c(=O)c2c1 [AZ628] | synergistic with knockdown of ten genes
65 | NC(=O)Nc1cc(-c2cccc(F)c2)sc1C(=O)N[C@H]1CCCNC1 [AZD7762] | Frequently among the top synergizing pairs; also recorded: high level of synergism
66 | COc1c(C)cnc(Cn2cnc3c(Cl)nc(N)nc32)c1C [BIIB021] | Frequently among the top synergizing pairs
67 | Cc1c(NC(=O)OC[C@@H]2COCCN2)cn2ncnc(Nc3ccc4c(cnn4Cc4cccc(F)c4)c3)c12 [BMS-599626] | significant synergy with nine or more genes
68 | O=C(NOCC1CC1)c1ccc(F)c(F)c1Nc1ccc(I)cc1Cl [CI-1040] | among the top synergistic compounds
69 | C#Cc1cccc(Nc2ncnc3cc(OC)c(OCCCCCCC(=O)NO)cc23)c1 [CUDC-101] | mostly synergistic

Same assay, conditions: OVCAR-8; drug 100 nM; siRNA knockdown

Row | Structure (SMILES) | number of genes (of 18) whose knockdown synergizes with the drug
70 | CC(C)[C@H](C(=O)Nc1ccc(C(=O)NO)cc1)c1ccccc1 [AR-42] | 10 genes
71 | C#Cc1cccc(Nc2ncnc3cc(OC)c(OCCCCCCC(=O)NO)cc23)c1 [CUDC-101] | 11 genes

Reference: patent US11946094B2, “Combination therapies and methods of use thereof” (Augusta University Research Institute, Inc., priority 2017, dated 2024)
